Experiments:
MCF-7 = assay: [3H]-thymidine incorporation assay; type: cell-based; settings: Homo sapiens, MCF7; MCF-7, 24 h of treatment
Outline: (§1)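 Cells treated 24 h with compound at 1, 5, 10 μM (MCF-7) or 5, 15, 30 μM (MDA-MB-231), in triplicate, then pulsed with 0.5 μCi [3H]-thymidine for 4 h at 37 °C. TCA-precipitated, lysed cells counted by scintillation; uptake expressed as percent of control.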

MDA-MB-231 = assay: [3H]-thymidine incorporation assay; type: cell-based; settings: Homo sapiens; MDA-MB-231, 24 h of treatment
Outline: as §1

CCRF-CEM [1] = settings: 48 h
RPMI-8226 = settings: RPMI-8226, 48 h
HCT-116 = settings: HCT-116, 48 h
SF-268 [2] = settings: SF-268, 48 h
SF-539 [3] = settings: for growth GP: SF-539, 10 μM, 48 h; for TGI: SF-539, 48 h
MDA-MB-435 = settings: MDA-MB-435, 48 h
MDA-MB-231/ATCC = settings: 48 h
Leukemia = Leukemia subpanel
CCRF-CEM [4] = assay: cells; settings: Homo sapiens, 48 h
MOLT-4 = assay: cells; settings: Homo sapiens, MOLT-4, 48 h; for CC50: read-out: LC50, MOLT-4, 48 h
NCI-H23 = assay: cells; settings: Homo sapiens, NCI-H23, 48 h; for CC50: read-out: LC50, NCI-H23, 48 h
HT29 = assay: cells; settings: Homo sapiens, HT-29, 48 h; for GI50: HT29, 48 h; for CC50: read-out: LC50, HT29, 48 h
SF-268 [5] = assay: cells; settings: Homo sapiens, SF-268, 48 h; for CC50: read-out: LC50, SF-268, 48 h
SF-539 [6] = assay: cells; settings: Homo sapiens, SF-539, 48 h
NCI/ADR-RES = assay: cells; settings: Homo sapiens, 48 h; for CC50: read-out: LC50, NCI/ADR-RES, 48 h
CAKI-1 = assay: cells; settings: Homo sapiens, CAKI-1, 48 h
TK-10 = assay: cells; settings: Homo sapiens, TK-10, 48 h; for CC50: read-out: LC50, TK-10, 48 h
DU-145 = assay: cells; settings: Homo sapiens, DU-145, 48 h; for CC50: read-out: LC50, DU-145, 48 h
HS 578T = assay: cells; settings: Homo sapiens, 48 h; for GI50: HS 578T; for CC50: read-out: LC50
[7] = system: Non-small cell lung cancer; assay: cells; settings: Homo sapiens; for GI50: read-out: MG_MID GI50; for CC50: read-out: MG_MID LC50
Renal Cancer = assay: cells; settings: Homo sapiens; for GI50: read-out: MG_MID GI50; for CC50: read-out: MG_MID LC50
HOP-92 = assay: NCI-60 SRB screen; settings: HOP-92, 48 h; for GI50 / CC50: Homo sapiens; for CC50: read-out: LC50, HOP-92, 48 h
NCI-H266 = assay: NCI-60 SRB screen; settings: for GI50 / CC50: Homo sapiens, 48 h; for GI50 / TGI: NCI-H266, 48 h; for CC50: read-out: LC50, NCI-H266, 48 h
SNB-19 = assay: NCI-60 SRB screen; settings: for GI50 / CC50: Homo sapiens; for GI50 / CC50 / TGI: SNB-19, 48 h; for CC50: read-out: LC50, SNB-19, 48 h
MALME-3M = assay: NCI-60 SRB screen; settings: 48 h; for GI50 / CC50: Homo sapiens, Malme-3M; for CC50: read-out: LC50, MALME-3M, 48 h; for TGI: MALME-3M
OVCAR-5 = assay: NCI-60 SRB screen; settings: OVCAR-5, 48 h; for GI50: Homo sapiens
RXF 393 = assay: NCI-60 SRB screen; settings: RXF 393, 48 h; for GI50: Homo sapiens

SMILES: CC(C)C(C(=O)O)N1C(=O)/C(=C/C=C/c2ccc([N+](=O)[O-])o2)SC1=S (stereo not shown) [5b, 3-Methyl-2-((Z)-5-((E)-3-(5-nitrofuran-2-yl)allylidene)-4-oxo-2-thioxothiazolidin-3-yl)butanoic acid]
- IC50 (MCF-7): 1.93 µM
- IC50 (MDA-MB-231): 6.01 µM
- TGI (CCRF-CEM [1]): 1.81 µM
- TGI (RPMI-8226): 1.49 µM
- TGI (HCT-116): 1.13 µM
- TGI (SF-268 [2]): 3.57 µM
- growth GP (SF-539 [3]): -98.47%
- TGI (SF-539 [3]): 2.91 µM
- TGI (MDA-MB-435): 2.17 µM
- TGI (MDA-MB-231/ATCC): 3.03 µM
- MG_MID TGI (Leukemia): 3.77 µM
- GI50 (CCRF-CEM [4]): 0.36 µM
- GI50 (MOLT-4): 2.34 µM
- CC50 (MOLT-4): > 100 µM
- GI50 (NCI-H23): 1.75 µM
- CC50 (NCI-H23): 6.63 µM
- GI50 (HT29): 1.37 µM
- CC50 (HT29): 6.14 µM
- GI50 (SF-268 [5]): 1.61 µM
- CC50 (SF-268 [5]): 7.92 µM
- GI50 (SF-539 [6]): 1.44 µM
- GI50 (NCI/ADR-RES): 1.47 µM
- CC50 (NCI/ADR-RES): 17.5 µM
- GI50 (CAKI-1): 1.17 µM
- GI50 (TK-10): 2.24 µM
- CC50 (TK-10): 7.23 µM
- GI50 (DU-145): 1.43 µM
- CC50 (DU-145): 5.56 µM
- GI50 (HS 578T): 2.09 µM
- CC50 (HS 578T): > 100 µM
- GI50 [7]: 1.8 µM
- CC50 [7]: 20.1 µM
- GI50 (Renal Cancer): 1.54 µM
- CC50 (Renal Cancer): 7.72 µM
- TGI (HOP-92): 4.17 µM
- GI50 (HOP-92): 2.13 µM
- CC50 (HOP-92): 8.15 µM
- GI50 (NCI-H266): 2.4 µM
- CC50 (NCI-H266): 88.8 µM
- TGI (NCI-H266): 7.65 µM
- GI50 (SNB-19): 1.64 µM
- CC50 (SNB-19): 5.53 µM
- growth GP (SNB-19; SNB-19, 10 μM, 48 h): -97.77%
- TGI (SNB-19): 3.01 µM
- GI50 (MALME-3M): 1.32 µM
- CC50 (MALME-3M): 5.64 µM
- TGI (MALME-3M): 2.73 µM
- GI50 (OVCAR-5): 2.13 µM
- TGI (OVCAR-5): 3.83 µM
- GI50 (RXF 393): 1.74 µM
- TGI (RXF 393): 3.27 µM

SMILES: O=C(O)CCN1C(=O)/C(=C/C=C/c2ccc([N+](=O)[O-])o2)SC1=S [12b, 3-((Z)-5-((E)-3-(5-Nitrofuran-2-yl)allylidene)-4-oxo-2-thioxothiazolidin-3-yl)propanoic acid]
- IC50 (MCF-7): 6.66 µM
- IC50 (MDA-MB-231): 1.82 µM
- TGI (CCRF-CEM [1]): 0.87 µM
- TGI (RPMI-8226): 4.48 µM
- TGI (HCT-116): 3.57 µM
- TGI (SF-268 [2]): 3.18 µM
- growth GP (SF-539 [3]): -96.95%
- TGI (SF-539 [3]): 3.65 µM
- TGI (MDA-MB-435): 2.48 µM
- TGI (MDA-MB-231/ATCC): 3.24 µM
- MG_MID TGI (Leukemia): 2.52 µM
- GI50 (CCRF-CEM [4]): 0.25 µM
- GI50 (MOLT-4): 0.58 µM
- CC50 (MOLT-4): > 100 µM
- GI50 (NCI-H23): 1.69 µM
- CC50 (NCI-H23): 6.7 µM
- GI50 (SF-268 [5]): 1.44 µM
- CC50 (SF-268 [5]): 7.02 µM
- GI50 (SF-539 [6]): 1.66 µM
- GI50 (NCI/ADR-RES): 1.21 µM
- CC50 (NCI/ADR-RES): 24.8 µM
- GI50 (CAKI-1): 1.42 µM
- GI50 (TK-10): 2.02 µM
- CC50 (TK-10): 7.19 µM
- GI50 (DU-145): 2.61 µM
- CC50 (DU-145): 33.3 µM
- GI50 (HS 578T): 1.45 µM
- CC50 (HS 578T): > 100 µM
- GI50 [7]: 2.59 µM
- CC50 [7]: 25.9 µM
- GI50 (Renal Cancer): 3.05 µM
- CC50 (Renal Cancer): 11.9 µM
- TGI (HOP-92): 3.50 µM
- GI50 (HOP-92): 1.83 µM
- CC50 (HOP-92): 6.72 µM
- GI50 (NCI-H266): 2.83 µM
- CC50 (NCI-H266): 79.7 µM
- TGI (NCI-H266): 12.5 µM
- GI50 (SNB-19): 2.3 µM
- CC50 (SNB-19): 22.9 µM
- TGI (SNB-19): 6.37 µM
- GI50 (MALME-3M): 0.5 µM
- CC50 (MALME-3M): 4.25 µM
- TGI (MALME-3M): 1.66 µM
- GI50 (OVCAR-5): 1.99 µM
- TGI (OVCAR-5): 3.70 µM
- GI50 (RXF 393): 1.58 µM
- TGI (RXF 393): 3.02 µM

SMILES: O=C(O)C(c1ccccc1)N1C(=O)/C(=C/C=C/c2ccc([N+](=O)[O-])o2)SC1=S (stereo not shown) [9b, 2-((Z)-5-((E)-3-(5-Nitrofuran-2-yl)allylidene)-4-oxo-2-thioxothiazolidin-3-yl)-2-phenylacetic acid]
- IC50 (MCF-7): 7.98 µM
- IC50 (MDA-MB-231): 7.53 µM
- TGI (CCRF-CEM [1]): 13.3 µM
- TGI (RPMI-8226): 12.7 µM
- TGI (HCT-116): 8.14 µM
- TGI (SF-268 [2]): 23.7 µM
- TGI (SF-539 [3]): 24.7 µM
- TGI (MDA-MB-435): 13.0 µM
- TGI (MDA-MB-231/ATCC): 24.2 µM
- MG_MID TGI (Leukemia): 24.2 µM
- GI50 (CCRF-CEM [4]): 3.12 µM
- GI50 (MOLT-4): 12.1 µM
- CC50 (MOLT-4): > 100 µM
- GI50 (NCI-H23): 14.4 µM
- CC50 (NCI-H23): 66.9 µM
- GI50 (HT29): 5.02 µM
- CC50 (HT29): 94.5 µM
- GI50 (SF-268 [5]): 10.8 µM
- CC50 (SF-268 [5]): 52.2 µM
- GI50 (SF-539 [6]): 12 µM
- GI50 (NCI/ADR-RES): 13.5 µM
- CC50 (NCI/ADR-RES): 84.9 µM
- GI50 (CAKI-1): 6.27 µM
- GI50 (TK-10): 16.1 µM
- CC50 (TK-10): 55.9 µM
- GI50 (DU-145): 11.5 µM
- CC50 (DU-145): 48.8 µM
- GI50 (HS 578T): 4.59 µM
- CC50 (HS 578T): > 100 µM
- GI50 [7]: 11.1 µM
- CC50 [7]: 73.2 µM
- GI50 (Renal Cancer): 9.53 µM
- CC50 (Renal Cancer): 50.7 µM
- TGI (HOP-92): 27.5 µM
- GI50 (HOP-92): 13.4 µM
- CC50 (HOP-92): 56.2 µM
- GI50 (NCI-H266): 12.2 µM
- CC50 (NCI-H266): 89.7 µM
- TGI (NCI-H266): 33.1 µM
- GI50 (SNB-19): 13.5 µM
- CC50 (SNB-19): 51.4 µM
- TGI (SNB-19): 26.3 µM
- GI50 (MALME-3M): 5.4 µM
- CC50 (MALME-3M): 48.8 µM
- TGI (MALME-3M): 18.7 µM
- GI50 (OVCAR-5): 12.7 µM
- TGI (OVCAR-5): 25.8 µM
- GI50 (RXF 393): 4.01 µM
- TGI (RXF 393): 14.6 µM

Reference: PMC12655351, “Synthesis and Anticancer Activity Evaluation of New 5-((5-Nitrofuran-2-yl)allylidene)-2-thioxo-4-thiazolidinones” (Pharmaceuticals, 2025)
